US10688099B2, “Methods for modulating the amount of RNA transcripts” (PTC Therapeutics, Inc., priority 2013, dated 2020)

System: RNA isoforms in PNN 1-46 SMA type I patient-derived fibroblasts
Assay: RNA Abundance Modulation (RNA isoform abundance, iFPM, HiSeq RNA sequencing)
Type: cell-based, human
Conditions: 3 μM
Procedure: Cells from a cell line of interest are cultured in conditions sufficient to yield the number of cells capable of generating enough RNA for subsequent sequencing steps. Cells from the tested cell line are contacted with a compound described herein.
To culture said cells, they are seeded, at appropriate concentrations in a volume of media in a cell culture container and incubated for 4, 5, 6, 7, 8, 9, 10, or more hours. A concentrated solution of compound in a vehicle (e.g., DMSO) is then added in sufficient volume to result in the intended final concentration of the compound, for example 100 nM, 500 nM, 1 μM, 5 μM, 10 μM, 15 μM, 20 μM, or more. The cells may also be treated with vehicle alone, as a control. A number of replicates of each concentration or control may be made (e.g., 2 replicates). The cells are then incubated at a constant temperature appropriate for cell culture of the particular cell line (e.g., 37° C.) for 6, 12, 18, 24, 48, or more hours. After incubation, the growth medium is removed and the cells are washed with the appropriate buffer (e.g., PBS). Cells are then removed from adherence to the cell culture container by treatment with a solution containing trypsin, and the trypsin subsequently quenched with the appropriate volume of buffer (e.g., DMEM-FBS). The cells are then pelleted with gentle centrifugation (e.g., ≤90×g centrifugal force) and resuspended in a buffer to lyse the cells for extraction of RNA. The cell lysates may then be frozen (e.g., at −80° C.) or, alternately, may immediately be used in a procedure to purify the RNA (e.g. by use of the RNEASY PLUS® minikit). The RNA from cell lysates is eluted in the appropriate volume of buffer (e.g., RNEASE-FREE H2O®). The resulting purified RNA may then be sequenced (e.g., using RNASeq) or analyzed using a human exon array (e.g., by GENECHIP® human exon array) to determine changes in the RNA levels in those cells treated with compound compared to those cells treated only with DMSO. The purified RNA may also be quantified by other methods known in the art.
Using the RNA data obtained from sequencing, exon array, or other methods, a statistical analysis can reveal changes in the RNA levels of compound-treated compared with control. For example, t-test p-values may be calculated for the data obtained through sequencing and exon array methods in order to compare compound-treated cells to those treated with the DMSO control. […] Analysis of the sequencing and exon array data may then also yield predictions about the cause of the aberrant amount of an RNA transcript in the cells (e.g., perturbation of RNA splicing, RNA transcription, or RNA stability). These predictions may be further confirmed by methods known in the art. For example, RT-PCR and RT-qPCR may be used to confirm the change in amount of RNA transcripts for one or more particular transcripts of interest.
Following the methods described above in Example 1, PNN 1-46 SMA type I patient-derived fibroblasts were treated with 300 nM or 3 μM Compounds 774 and 808 in 0.5% DMSO.
700,000 cells were seeded in 10 mL of medium (DMEM plus 10% FBS) in a T-75 flask. Cells were allowed to attach for at least 4 hrs, after which 50 μL of a 200× compound solution (100% DMSO) was added to each well, and the plate was incubated at 37° C. for 24 hrs.
At the end of the incubation period, the supernatant was removed and the cells where washed with PBS. TrypLE (Invitrogen) express solution was added (e.g. 1.5 mL per one T75 flask). The flasks were incubated for 3 to 5 min at 37° C. The trypsin was then quenched, e.g., by adding 10 mL DMEM-FBS.
Next, the cells were pelleted using gentle centrifugation without exceeding 90×g centrifugal force. The supernatant was removed and the cell pellet was re-suspended in 600 μL RLT buffer (the RLT buffer was supplemented with beta-mercaptoethanol according to the RNeasy protocol manual) by pipetting up and down until the pellet was completely dissolved […]

With CCc1nc(C)cn2nc(-c3cc(=O)n4cc(C5CCN(C)CC5)cc(C)c4n3)cc12 [Compound 774] the “L2FC (x + 1)” value (TBC1D15 NR_027449) was −2.621, the “L2abs (Cpd-DMSO)” value (TBC1D15 NR_027449) was 6.94 and the “abs (Cpd-DMSO)” value (TBC1D15 NR_027449) was 123 iFPM. The “amp FC (x + 1)” value (TBC1D15 NR_027449) was 6.15, the “ave Cpd” value (TBC1D15 NR_027449) was 23 iFPM and the “FC (x + 1)” value (TEP1 AB209669) was 1.0000. For the same compound, the “L2FC (x + 1)” value (TEP1 AB209669) was 0.000, the “L2abs (Cpd-DMSO)” value (TEP1 AB209669) was 0 and the “abs (Cpd-DMSO)” value (TEP1 AB209669) was 0 iFPM. For the same compound, the “amp FC (x + 1)” value (TEP1 AB209669) was 1.00, the “ave Cpd” value (TEP1 AB209669) was 0 iFPM and the “FC (x + 1)” value (TEP1 AK303307) was 1.3304. The “L2FC (x + 1)” value (TEP1 AK303307) was 0.412, the “L2abs (Cpd-DMSO)” value (TEP1 AK303307) was 1.91 and the “abs (Cpd-DMSO)” value (TEP1 AK303307) was 4 iFPM. The “amp FC (x + 1)” value (TEP1 AK303307) was 1.33, the “ave Cpd” value (TEP1 AK303307) was 14 iFPM and the “FC (x + 1)” value (TEP1 BC143812) was 0.8125. For the same compound, the “L2FC (x + 1)” value (TEP1 BC143812) was −0.300, the “L2abs (Cpd-DMSO)” value (TEP1 BC143812) was 4.99 and the “abs (Cpd-DMSO)” value (TEP1 BC143812) was 32 iFPM. The “amp FC (x + 1)” value (TEP1 BC143812) was 1.23, the “ave Cpd” value (TEP1 BC143812) was 137 iFPM and the “FC (x + 1)” value (TEP1 BC143815) was 0.0138. The “L2FC (x + 1)” value (TEP1 BC143815) was −6.184, the “L2abs (Cpd-DMSO)” value (TEP1 BC143815) was 6.16 and the “abs (Cpd-DMSO)” value (TEP1 BC143815) was 72 iFPM. For the same compound, the “amp FC (x + 1)” value (TEP1 BC143815) was 72.71, the “ave Cpd” value (TEP1 BC143815) was 0 iFPM and the “FC (x + 1)” value (TEP1 BX640983) was 1.1188. For the same compound, the “L2FC (x + 1)” value (TEP1 BX640983) was 0.162, the “L2abs (Cpd-DMSO)” value (TEP1 BX640983) was 0.61 and the “abs (Cpd-DMSO)” value (TEP1 BX640983) was 2 iFPM. For the same compound, the “amp FC (x + 1)” value (TEP1 BX640983) was 1.12, the “ave Cpd” value (TEP1 BX640983) was 13 iFPM and the “FC (x + 1)” value (TEP1 NM_007110) was 1.0236. For the same compound, the “L2FC (x + 1)” value (TEP1 NM_007110) was 0.034, the “L2abs (Cpd-DMSO)” value (TEP1 NM_007110) was 3.20 and the “abs (Cpd-DMSO)” value (TEP1 NM_007110) was 9 iFPM. For the same compound, the “amp FC (x + 1)” value (TEP1 NM_007110) was 1.02, the “ave Cpd” value (TEP1 NM_007110) was 397 iFPM and the “FC (x + 1)” value (TFCP2 AK308087) was 0.8370. For the same compound, the “L2FC (x + 1)” value (TFCP2 AK308087) was −0.257, the “L2abs (Cpd-DMSO)” value (TFCP2 AK308087) was 4.27 and the “abs (Cpd-DMSO)” value (TFCP2 AK308087) was 19 iFPM. For the same compound, the “amp FC (x + 1)” value (TFCP2 AK308087) was 1.19, the “ave Cpd” value (TFCP2 AK308087) was 98 iFPM and the “FC (x + 1)” value (TFCP2 NM_005653) was 0.8324. The “L2FC (x + 1)” value (TFCP2 NM_005653) was −0.265, the “L2abs (Cpd-DMSO)” value (TFCP2 NM_005653) was 7.35 and the “abs (Cpd-DMSO)” value (TFCP2 NM_005653) was 163 iFPM. For the same compound, the “amp FC (x + 1)” value (TFCP2 NM_005653) was 1.20, the “ave Cpd” value (TFCP2 NM_005653) was 808 iFPM and the “FC (x + 1)” value (TFCP2 NM_001173452) was 4.0384. For the same compound, the “L2FC (x + 1)” value (TFCP2 NM_001173452) was 2.014, the “L2abs (Cpd-DMSO)” value (TFCP2 NM_001173452) was 7.49 and the “abs (Cpd-DMSO)” value (TFCP2 NM_001173452) was 180 iFPM. For the same compound, the “amp FC (x + 1)” value (TFCP2 NM_001173452) was 4.04, the “ave Cpd” value (TFCP2 NM_001173452) was 239 iFPM and the “FC (x + 1)” value (TFCP2 NM_001173453) was 0.0531. For the same compound, the “L2FC (x + 1)” value (TFCP2 NM_001173453) was −4.236, the “L2abs (Cpd-DMSO)” value (TFCP2 NM_001173453) was 4.16 and the “abs (Cpd-DMSO)” value (TFCP2 NM_001173453) was 18 iFPM. For the same compound, the “amp FC (x + 1)” value (TFCP2 NM_001173453) was 18.84, the “ave Cpd” value (TFCP2 NM_001173453) was 0 iFPM and the “FC (x + 1)” value (TGFBRAP1 AK021697) was 0.2793. For the same compound, the “L2FC (x + 1)” value (TGFBRAP1 AK021697) was −1.840, the “L2abs (Cpd-DMSO)” value (TGFBRAP1 AK021697) was 4.66 and the “abs (Cpd-DMSO)” value (TGFBRAP1 AK021697) was 25 iFPM. The “amp FC (x + 1)” value (TGFBRAP1 AK021697) was 3.58, the “ave Cpd” value (TGFBRAP1 AK021697) was 9 iFPM and the “FC (x + 1)” value (TGFBRAP1 NM_004257) was 0.0064. For the same compound, the “L2FC (x + 1)” value (TGFBRAP1 NM_004257) was −7.294, the “L2abs (Cpd-DMSO)” value (TGFBRAP1 NM_004257) was 7.29 and the “abs (Cpd-DMSO)” value (TGFBRAP1 NM_004257) was 156 iFPM.
